Marks after values point to notes of the source that are not given here.
Columns and labels:
Human recombinant PTP1B = molecular target: T1, Human recombinant PTP1B (Homo sapiens, UniProt P18031); assay type: biochemical; conditions: for percent of phosphatase control (change) at single concentration: compound at 2.5 uM; for IC50: recombinant PTP1B, malachite green phosphate detection
T1 construct: made in house
T1 sequence (P18031 1-435): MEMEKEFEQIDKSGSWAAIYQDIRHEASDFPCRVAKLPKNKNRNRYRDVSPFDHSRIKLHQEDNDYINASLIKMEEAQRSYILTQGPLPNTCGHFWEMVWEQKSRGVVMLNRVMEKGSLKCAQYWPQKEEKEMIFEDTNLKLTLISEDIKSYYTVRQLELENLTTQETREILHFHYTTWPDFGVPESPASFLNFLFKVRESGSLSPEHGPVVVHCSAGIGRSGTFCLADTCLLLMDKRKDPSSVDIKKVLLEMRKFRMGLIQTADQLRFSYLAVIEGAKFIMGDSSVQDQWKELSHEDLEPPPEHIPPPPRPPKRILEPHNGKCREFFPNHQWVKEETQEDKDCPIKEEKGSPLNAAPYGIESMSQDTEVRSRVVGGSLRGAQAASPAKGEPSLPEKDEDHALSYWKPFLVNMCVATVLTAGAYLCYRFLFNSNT

[1] = test system: rat hepatic microsomal PTPases; conditions: PTPase activity, compound at 50 μM, rat liver microsomes
diabetic (ob/ob) mice = assay: Blood glucose lowering in diabetic (ob/ob) mice; assay type: in vivo, mouse; conditions: dose 100 mg/Kg, plasma glucose
From the text: The procedures used and results obtained are briefly described below.
The non-insulin dependent diabetic (NIDDM) syndrome can be typically characterizes by obesity, hyperglycemia, abnormal insulin secretion, hyperinsulinemia and insulin resistance.
In each test procedure, mice [Male or female ob/ob (C57 B1/6J) and their lean litermates (ob/+ or +/+, Jackson Laboratories) ages 2 to 5 months (10 to 65 g)] of a similar age were randomized according to body weight into 4 groups of 10 mice. The mice were housed 5 per cage and are maintained on normal rodent chow with water ad libitum. Mice received test compound daily by gavage (suspended in 0.5 ml of 0.5% methyl cellulose); dissolved in the drinking water; or admixed in the diet. The dose of compounds given ranges from 2.5 to 200 mg/kg body weight/day. The dose is calculated based on the fed weekly body weight and is expressed as active moiety. […]
On the morning of Day 4, 7 or 14 two drops of blood (approximately 50 ul) were collected into sodium fluoride containing tubes either from the tail vein or after decapitation. […] The plasma was isolated by centrifugation and the concentration of glucose is measured enzymatically on an Abbott V.P. Analyzer.
For each mouse, the percentage change in plasma glucose on Day 4, 7 or 14 is calculated relative to the mean plasma glucose of the vehicle treated mice. […]

Compound	percent of phosphatase control (change) at single concentration (Human recombinant PTP1B)	melting point	IC50 (Human recombinant PTP1B)	% Change from Control [1]	% Change Glucose from Vehicle (diabetic (ob/ob) mice)
Cc1oc(-c2ccc(C(F)(F)F)cc2)nc1-c1ccc(-c2cccc(Cn3oc(=O)[nH]c3=O)c2)cc1 [Example 14, 2-{4′-[5-Methyl-2-(4-trifluoromethyl-phenyl)-oxazol-4-yl]-biphenyl-3-ylmethyl}-[1,2,4]oxadiazolidine-3,5-dione]	−65 (2.5 uM) %	216 to 218 °C			
Ammonium molybdate tetrahydrate [reference compound]			8.7 µM		
Cc1oc(-c2ccc(C(F)(F)F)cc2)nc1-c1cccc(-c2ccc(O)cc2)c1 [Example 4, 3′-[5-Methyl-2-(4-trifluoromethyl-phenyl)-oxazol-4-yl]-biphenyl-4-ol]				−28%	
Cc1oc(-c2ccc(C(F)(F)F)cc2)nc1-c1ccc(-c2cc(Br)c(OCC(=O)O)c(Br)c2)cc1 [Example 10, {3,5-Dibromo-4′-[5-methyl-2-(4-trifluoromethyl-phenyl)-oxazol-4-yl]-biphenyl-4-yloxy}-acetic Acid]			0.47 µM	−35%	
Cc1oc(-c2ccc(C(F)(F)F)cc2)nc1-c1ccc2c(Br)c(OCC(=O)O)ccc2c1 [Example 16, {1-Bromo-6-[5-methyl-2-(4-trifluoromethyl-phenyl)-oxazol-4-yl]-naphthalen-2-yloxy}-acetic Acid]			1.2 µM	−20%	
Cc1oc(-c2ccc(C(F)(F)F)cc2)nc1-c1ccc(-c2ccc(Cn3oc(=O)[nH]c3=O)cc2)cc1 [Example 13, 2-{4′-[5-Methyl-2-(4-trifluoromethyl-phenyl)-oxazol-4-yl]-biphenyl-4-ylmethyl}-[1,2,4]oxadiazolidine-3,5-dione]		196 to 198 °C	1.15 µM		
CC1(COc2ccc(CC3SC(=O)NC3=O)cc2)CCCCC1 (stereo not drawn) [Ciglitazone, 5-(4-(1-methylcyclohexylmethoxy)benzyl)-2,4-dione, reference compound]					−43%
Cc1oc(-c2ccc(C(F)(F)F)cc2)nc1-c1ccc(-c2ccc(O)cc2)cc1 [Example 3, 4′-[5-Methyl-2-(4-trifluoromethyl-phenyl)-oxazol-4-yl]-biphenyl-4-ol]	−56 (2.5 uM) %				
Cc1oc(-c2ccc(C(F)(F)F)cc2)nc1-c1cccc(-c2ccc(OC(Cc3ccccc3)C(=O)O)cc2)c1 (stereo not drawn) [Example 8, 2-{3′-[5-Methyl-2-(4-trifluoromethyl-phenyl)-oxazol-4-yl]-biphenyl-4-yloxy}-3-phenyl-propionic Acid]			1.25 µM	−78%	
Cc1oc(-c2ccc(C(F)(F)F)cc2)nc1-c1ccc2c(Br)c(OC(Cc3ccccc3)C(=O)O)ccc2c1 (stereo not drawn) [Example 17, 2-{1-Bromo-6-[5-methyl-2-(4-trifluoromethyl-phenyl)-oxazol-4-yl]-naphthalen-2-yloxy}-3-phenyl-propionic Acid]			0.98 µM	−54%	

Now from value to compound, other results behind:

percent of phosphatase control (change) at single concentration (Human recombinant PTP1B)	melting point	IC50 (Human recombinant PTP1B)	% Change from Control [1]	Compound	% Change Glucose from Vehicle (diabetic (ob/ob) mice)
		0.65 µM	−20%	Cc1oc(-c2ccc(C(F)(F)F)cc2)nc1-c1ccc(-c2cc(Br)c(O)c(Br)c2)cc1 [Example 9, 3,5-Dibromo-4′-[5-methyl-2-(4-trifluoromethyl-phenyl)-oxazol-4-yl]-biphenyl-4-ol]	
−47 (2.5 uM) %	93 to 94 °C			COc1ccc(-c2cccc(-c3nc(-c4ccc(C(F)(F)F)cc4)oc3C)c2)cc1 [Example 2, 4-(4′-Methoxy-biphenyl-3-yl)-5-methyl-2-(4-trifluoromethyl-phenyl)-oxazole]	
		0.85 µM		Cc1oc(-c2ccc(C(F)(F)F)cc2)nc1-c1ccc(-c2ccc(OCC(=O)O)cc2)cc1 [Example 5, {4′-[5-Methyl-2-(4-trifluoromethyl-phenyl)-oxazol-4-yl]-biphenyl-4-yloxy}-acetic Acid]	−40^a %
		1.29 µM	−74%	Cc1oc(-c2ccc(C(F)(F)F)cc2)nc1-c1ccc(-c2ccc(OC(Cc3ccccc3)C(=O)O)cc2)cc1 (stereo not drawn) [Example 7, 2-{4′-[5-Methyl-2-(4-trifluoromethyl-phenyl)-oxazol-4-yl]-biphenyl-4-yloxy}-3-phenyl-propionic Acid]	
	167 to 168 °C	1.66 µM		COc1ccc(-c2ccc(-c3nc(-c4ccc(C(F)(F)F)cc4)oc3C)cc2)cc1 [Example 1, 4-(4′-Methoxy-biphenyl-4-yl)-5-methyl-2-(4-trifluoromethyl-phenyl)-oxazole]	
		0.13 µM	−68%	Cc1oc(-c2ccc(C(F)(F)F)cc2)nc1-c1ccc(-c2cc(Br)c(OC(Cc3ccccc3)C(=O)O)c(Br)c2)cc1 (stereo not drawn) [Example 12, 2-{3,5-Dibromo-4′-[5-methyl-2-(4-trifluoromethyl-phenyl)-oxazol-4-yl]-biphenyl-4-yloxy}-3-phenyl-propionic Acid]	
−40 (2.5 uM) %	70 to 72 °C			COC(=O)C(Cc1ccccc1)Oc1c(Br)cc(-c2ccc(-c3nc(-c4ccc(C(F)(F)F)cc4)oc3C)cc2)cc1Br (stereo not drawn) [Example 11, 2-{3,5-Dibromo-4′-[5-methyl-2-(4-trifluoromethyl-phenyl)-oxazol-4-yl]-biphenyl-4-yloxy}-3-phenyl-propionic Acid Methyl Ester]	
	226 to 227 °C	0.93 µM	−47%	Cc1oc(-c2ccc(C(F)(F)F)cc2)nc1-c1ccc(-c2ccc(OCc3nnn[nH]3)cc2)cc1 [Example 15, 5-{4′-[-Methyl-2-(4-trifluoromethyl-phenyl)-oxazol-4-yl]-biphenyl-4-yloxymethyl}-1H-tetrazole]	

From patent US6699896B1, “Oxazole-aryl-carboxylic acids useful in the treatment of insulin resistance and hyperglycemia” (Wyeth, priority 1998, dated 2004)
